Key:
[1] = system: bladder capacity during acetic acid irritation; test: Dilute Acetic Acid Model-rats, filling cystometry; format: in vivo, rat; conditions: for bladder capacity vs AA/Veh 3: rats, intraduodenal
From the text: Female rats (250-275 g BW, n=8) were anesthetized with urethane (1.2 g/kg) and a saline-filled catheter (PE-50) was inserted into the proximal duodenum for intraduodenal drug administration. A flared-tipped PE-50 catheter was inserted into the bladder dome, via a midline lower abdominal incision, for bladder filling and pressure recording and secured by ligation. The abdominal cavity was moistened with saline and closed by covering with a thin plastic sheet in order to maintain access to the bladder for emptying purposes. Fine silver or stainless steel wire electrodes were inserted into the external urethral sphincter (EUS) percutaneously for electromyography (EMG). Animals were positioned on a heating pad which maintained body temperature at 37° C.
Saline and all subsequent infusates were continuously infused at a rate of about 0.055 ml/min via the bladder filling catheter for about 60 minutes to obtain a baseline of lower urinary tract activity (continuous cystometry; CMG). […] Bladder capacity (ml) was calculated as the flow rate of the bladder filling solution (ml/min) multiplied by the elapsed time between commencement of bladder filling and occurrence of bladder contraction (min).
Following the control period, a 0.25% acetic acid solution in saline (AA) was infused into the bladder to induce bladder irritation. […] Following injection of the third vehicle control, bladder capacity was again measured, as described above but using AA to fill the bladder. […] Bladder capacity was measured as described above using AA to fill the bladder, at 20 and 50 minutes following each subsequent drug treatment.
Bladder capacity was determined for each treatment regimen as described above (flow rate of the bladder filling solution (ml/min) multiplied by the elapsed time between commencement of bladder filling and occurrence of bladder contraction (min)) and converted to % Bladder Capacity normalized to the last vehicle measurement of the AA/Veh 3 treatment group. Data were then analyzed by non-parametric ANOVA for repeated measures (Friedman Test) with Dunn's Multiple Comparison test. […]

[2] = system: bladder capacity during acetic acid irritation; test: Dilute Acetic Acid Model-Cats, cystometry; format: in vivo, cat
Protocol: Six alpha-chloralose anesthetized (50-100 mg/kg) normal female cats (2.5-3.5 kg; Harlan) were utilized in this study.
MCI-225 was dissolved in 5% methylcellulose in water at 3.0, 10.0 or 30 mg/ml Animals were dosed by volume of injection=body weight in kg.
Female cats (2.5-3.5 kg; Harlan) had their food removed the night before the study. The following morning, the cats were anesthetized with isoflurane and prepped for surgery using aseptic technique. Polyethylene catheters were surgically placed to permit the measurement of bladder pressure, urethral pressure, arterial pressure, respiratory rate as well as for the delivery of drugs. Fine wire electrodes were implanted alongside the external urethral anal sphincter. Following surgery, the cats were slowly switched from the gas anesthetic isoflurane (2-3.5%) to alpha-chloralose (50-100 mg/kg). During control cystometry, saline was slowly infused into the bladder (0.5-1.0 ml/min) for 1 hour. The control cystometry was followed by 0.5% acetic acid in saline for the duration of the experiment. After assessing the cystometric variables under these baseline conditions, the effects of MCI-225 on bladder capacity were determined via a 3 point dose response protocol.
Data was analyzed using a non-parametric One-Way ANOVA (Friedman Test) with the post-hoc Dunn's multiple comparison t test. P<0.05 was considered significant.

[3] = biological target: T1, Monoamine Oxidase-A (MAO-A) (Homo sapiens, UniProt P21397); conditions: cited from earlier work
T1 sequence (P21397 1-527): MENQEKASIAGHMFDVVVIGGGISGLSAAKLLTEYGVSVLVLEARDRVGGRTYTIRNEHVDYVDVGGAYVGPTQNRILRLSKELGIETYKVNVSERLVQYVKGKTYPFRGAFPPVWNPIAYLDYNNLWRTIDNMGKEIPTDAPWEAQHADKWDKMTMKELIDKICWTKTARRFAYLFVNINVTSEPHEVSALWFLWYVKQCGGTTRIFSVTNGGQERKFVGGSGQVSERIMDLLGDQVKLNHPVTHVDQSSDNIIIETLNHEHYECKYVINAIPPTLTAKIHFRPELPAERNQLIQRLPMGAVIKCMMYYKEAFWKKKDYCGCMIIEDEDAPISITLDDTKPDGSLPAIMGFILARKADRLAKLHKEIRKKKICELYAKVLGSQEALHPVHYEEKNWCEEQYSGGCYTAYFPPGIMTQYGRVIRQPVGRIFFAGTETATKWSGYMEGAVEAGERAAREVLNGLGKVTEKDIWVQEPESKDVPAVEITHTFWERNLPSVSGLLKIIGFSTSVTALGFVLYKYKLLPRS

[4] = biological target: T2, Monoamine Oxidase-B (MAO-B) (Homo sapiens, UniProt P27338); conditions: cited from earlier work
T2 sequence (P27338 1-520): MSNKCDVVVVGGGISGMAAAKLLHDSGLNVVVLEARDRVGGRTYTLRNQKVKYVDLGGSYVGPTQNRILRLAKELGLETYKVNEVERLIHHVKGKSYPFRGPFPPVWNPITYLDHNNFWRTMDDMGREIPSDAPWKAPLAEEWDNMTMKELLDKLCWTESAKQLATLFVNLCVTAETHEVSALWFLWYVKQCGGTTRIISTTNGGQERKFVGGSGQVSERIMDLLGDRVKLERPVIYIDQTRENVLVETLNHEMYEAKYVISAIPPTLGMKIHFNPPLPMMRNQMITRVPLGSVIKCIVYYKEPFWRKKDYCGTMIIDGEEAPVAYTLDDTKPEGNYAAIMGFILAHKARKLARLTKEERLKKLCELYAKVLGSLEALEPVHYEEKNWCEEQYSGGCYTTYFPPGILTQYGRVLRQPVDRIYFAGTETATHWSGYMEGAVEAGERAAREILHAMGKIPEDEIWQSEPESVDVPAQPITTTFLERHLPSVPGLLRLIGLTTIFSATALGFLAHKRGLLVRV

[5] = biological target: T3, 5-HT3 receptor (Mus musculus, UniProt P23979); conditions: radioligand binding; read-out: Ki, affinity for the 5-HT3 receptor; cited from earlier work
T3 construct: host or cells: N1E-115 mouse neuroblastoma cells
T3 sequence (P23979 24-489): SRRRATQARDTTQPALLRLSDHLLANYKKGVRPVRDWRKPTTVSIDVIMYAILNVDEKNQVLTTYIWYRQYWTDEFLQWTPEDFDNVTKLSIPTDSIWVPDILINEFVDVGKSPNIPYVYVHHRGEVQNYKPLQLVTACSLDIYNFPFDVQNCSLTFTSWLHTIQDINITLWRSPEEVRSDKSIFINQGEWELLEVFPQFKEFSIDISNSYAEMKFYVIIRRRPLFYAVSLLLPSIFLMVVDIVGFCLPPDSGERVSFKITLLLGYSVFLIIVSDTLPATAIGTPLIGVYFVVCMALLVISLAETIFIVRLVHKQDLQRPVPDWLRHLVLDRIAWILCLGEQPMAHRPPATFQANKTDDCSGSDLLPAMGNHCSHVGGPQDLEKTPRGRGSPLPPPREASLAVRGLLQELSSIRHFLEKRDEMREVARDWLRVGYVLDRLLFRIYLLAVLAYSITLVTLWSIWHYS

[6] = system: α1, α2, β1, β2, 5-HT1, 5-HT1A, 5-HT1C, 5-HT2, 5-HT4, 5-HT6, 5-HT7, D1, D2, Muscarinic, M1, M2, M3, Nicotonic, H1, H2, GABA-A, GABA-B, BZP, Opiate …; conditions: all receptors of the panel other than 5-HT3; read-out: IC50, binding to the additional receptors tested; cited from earlier work
[7] = system: muscarinic receptors; conditions: cited from earlier work
[8] = preclinical and clinical studies, cited from earlier work

Structure (SMILES)	bladder capacity (% normalized to AA/Veh 3) ([1]; rats n=8, intraduodenal, cumulative 3-30 mg/kg, p=0.0005 Friedman test)	bladder capacity vs AA/Veh 3 ([1]; 10 mg/kg, p<0.05 Dunn's test)	bladder capacity vs AA/Veh 3 ([1]; 30 mg/kg, p<0.001 Dunn's test)	bladder capacity following acetic acid irritation ([2]; cats n=6, 3 point dose response 3, 10, 30 mg/kg, P<0.0103)	bladder capacity, individual dose significance ([2]; cats, 30 mg/kg, P<0.05)	inhibition of MAO-A activity [3]	inhibition of MAO-B activity [4]	Ki [5]	IC50 [6]	anticholinergic activity [7]	blood levels of gabapentin after XP13512 ([8]; broad range of oral doses)	absorption from the large intestine [8]
Cc1cc2c(-c3ccccc3F)nc(N3CCNCC3)nc2s1 [MCI-225, 4-(2-fluorophenyl)-6-methyl-2-(1-piperazinyl)thieno[2,3-d]pyrimidine]	dose-dependent increase in bladder capacity	significantly higher than AA/Veh 3	significantly higher than AA/Veh 3	significant dose-dependent increase in bladder capacity	individual dose significance attained	did not inhibit	did not inhibit	< 100 nM	> 1000 nM	substantially no anticholinergic activity	–	–
CC(OC(=O)NCC1(CC(=O)O)CCCCC1)OC(=O)C(C)C (stereo not drawn) [XP13512]	–	–	–	–	–	–	–	–	–	–	dose proportional blood levels of gabapentin	absorbed efficiently from the large intestine

From patent US6846823B2, “Method of treating lower urinary tract disorders” (Dynogen Pharmaceuticals, Inc., priority 2003, dated 2005)
